Two molecules from ChEMBL document CHEMBL1131296 (J Med Chem, 1998) can be followed below.

Where only a bound is given, the exact number is not on record here.

What is called pA2 is a measure of antagonist potency on a negative log scale. A high value points to higher antagonist potency. The Ki is the equilibrium dissociation constant of an inhibitor or competing ligand from its target. A high value points to a looser hold on the target.

The target in experiment [1] is T1, Adrenergic receptor alpha-2 (Rattus norvegicus, UniProt P22086+P19328+P22909).
T1 sequence (P22086 whole entry): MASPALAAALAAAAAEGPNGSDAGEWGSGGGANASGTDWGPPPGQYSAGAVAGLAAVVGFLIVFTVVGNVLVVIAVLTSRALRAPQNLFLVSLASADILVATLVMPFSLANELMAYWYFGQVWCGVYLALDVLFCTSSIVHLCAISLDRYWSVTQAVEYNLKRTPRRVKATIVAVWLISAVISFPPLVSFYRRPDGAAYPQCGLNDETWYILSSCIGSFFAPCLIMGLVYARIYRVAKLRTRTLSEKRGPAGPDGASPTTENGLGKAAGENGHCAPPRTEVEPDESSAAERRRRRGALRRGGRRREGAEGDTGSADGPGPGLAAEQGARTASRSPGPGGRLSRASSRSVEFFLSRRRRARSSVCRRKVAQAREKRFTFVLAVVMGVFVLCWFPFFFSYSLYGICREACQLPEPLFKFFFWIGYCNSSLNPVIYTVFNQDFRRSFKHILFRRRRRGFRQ
T1 sequence (P19328 whole entry): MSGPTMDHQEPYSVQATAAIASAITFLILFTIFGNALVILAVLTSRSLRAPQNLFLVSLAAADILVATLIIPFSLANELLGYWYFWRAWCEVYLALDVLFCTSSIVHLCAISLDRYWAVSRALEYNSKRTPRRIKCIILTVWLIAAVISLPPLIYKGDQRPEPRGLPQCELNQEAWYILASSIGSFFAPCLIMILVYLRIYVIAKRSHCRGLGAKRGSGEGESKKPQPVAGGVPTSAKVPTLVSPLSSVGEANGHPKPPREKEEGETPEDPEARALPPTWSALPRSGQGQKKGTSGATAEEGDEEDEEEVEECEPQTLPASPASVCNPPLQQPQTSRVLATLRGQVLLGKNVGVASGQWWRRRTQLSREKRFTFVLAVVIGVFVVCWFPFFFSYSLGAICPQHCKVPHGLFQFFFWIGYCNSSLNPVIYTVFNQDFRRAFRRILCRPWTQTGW
T1 sequence (P22909 whole entry): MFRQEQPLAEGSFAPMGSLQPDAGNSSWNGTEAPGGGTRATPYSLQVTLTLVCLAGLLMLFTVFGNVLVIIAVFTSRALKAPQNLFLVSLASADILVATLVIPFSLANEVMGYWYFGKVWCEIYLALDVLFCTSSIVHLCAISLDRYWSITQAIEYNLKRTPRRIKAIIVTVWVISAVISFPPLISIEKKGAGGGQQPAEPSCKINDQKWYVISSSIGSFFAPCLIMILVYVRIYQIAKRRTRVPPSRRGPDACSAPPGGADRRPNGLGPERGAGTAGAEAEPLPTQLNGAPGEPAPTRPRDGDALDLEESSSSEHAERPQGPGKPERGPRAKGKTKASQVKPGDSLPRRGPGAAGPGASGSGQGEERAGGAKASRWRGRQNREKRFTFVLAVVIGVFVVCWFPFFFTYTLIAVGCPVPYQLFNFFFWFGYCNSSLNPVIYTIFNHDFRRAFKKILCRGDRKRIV
Nature of the experiment: Antagonism of the clonidine-induced depression of twitch responses of rat isolated prostatic vas deferens.

In experiment [2] the target is T2, Alpha-1D adrenergic receptor (Homo sapiens, UniProt P25100).
T2 sequence (P25100 whole entry): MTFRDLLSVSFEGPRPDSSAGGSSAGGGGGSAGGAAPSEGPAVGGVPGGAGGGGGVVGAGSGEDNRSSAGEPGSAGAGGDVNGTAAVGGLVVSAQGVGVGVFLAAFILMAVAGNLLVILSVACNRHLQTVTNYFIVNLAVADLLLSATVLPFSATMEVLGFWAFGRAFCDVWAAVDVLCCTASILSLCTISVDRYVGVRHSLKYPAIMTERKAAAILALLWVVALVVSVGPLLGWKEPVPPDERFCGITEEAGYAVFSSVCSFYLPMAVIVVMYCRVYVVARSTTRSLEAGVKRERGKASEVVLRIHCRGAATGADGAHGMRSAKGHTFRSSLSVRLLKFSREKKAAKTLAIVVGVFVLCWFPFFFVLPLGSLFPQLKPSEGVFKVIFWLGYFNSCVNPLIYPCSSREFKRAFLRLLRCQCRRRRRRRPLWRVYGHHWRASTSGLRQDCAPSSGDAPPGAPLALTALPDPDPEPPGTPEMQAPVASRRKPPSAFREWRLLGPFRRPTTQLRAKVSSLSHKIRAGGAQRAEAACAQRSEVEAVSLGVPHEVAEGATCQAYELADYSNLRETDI
Briefly: Binding affinity at human cloned Alpha-1D adrenergic receptor in chinese hamster ovary cells by [3H]prazosin displacement. The experiment is classed as cell-based, CHO.

The target of the next experiment is D(2) dopamine receptor (Rattus norvegicus, UniProt P61169). Nature of the experiment: Binding affinity at native Dopamine receptor D2 in rat striatum by [3H]spiperone displacement. It counts as tissue-based.
D(2) dopamine receptor, sequence (P61169 whole entry): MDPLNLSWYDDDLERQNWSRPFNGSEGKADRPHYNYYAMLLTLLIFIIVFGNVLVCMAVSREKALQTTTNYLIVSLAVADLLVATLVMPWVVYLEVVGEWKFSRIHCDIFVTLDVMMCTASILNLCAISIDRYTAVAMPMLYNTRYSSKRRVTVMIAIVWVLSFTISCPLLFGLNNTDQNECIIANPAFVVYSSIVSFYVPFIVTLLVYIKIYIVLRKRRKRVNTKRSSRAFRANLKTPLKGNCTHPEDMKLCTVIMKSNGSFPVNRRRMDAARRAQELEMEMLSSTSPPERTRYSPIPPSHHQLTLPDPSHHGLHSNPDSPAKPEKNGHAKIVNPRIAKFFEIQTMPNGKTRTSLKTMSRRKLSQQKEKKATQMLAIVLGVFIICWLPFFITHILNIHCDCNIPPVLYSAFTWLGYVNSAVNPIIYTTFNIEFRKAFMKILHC
Experiment [3] deals with T3, Alpha-1A adrenergic receptor (Homo sapiens, UniProt P35348).
T3 sequence (P35348 whole entry): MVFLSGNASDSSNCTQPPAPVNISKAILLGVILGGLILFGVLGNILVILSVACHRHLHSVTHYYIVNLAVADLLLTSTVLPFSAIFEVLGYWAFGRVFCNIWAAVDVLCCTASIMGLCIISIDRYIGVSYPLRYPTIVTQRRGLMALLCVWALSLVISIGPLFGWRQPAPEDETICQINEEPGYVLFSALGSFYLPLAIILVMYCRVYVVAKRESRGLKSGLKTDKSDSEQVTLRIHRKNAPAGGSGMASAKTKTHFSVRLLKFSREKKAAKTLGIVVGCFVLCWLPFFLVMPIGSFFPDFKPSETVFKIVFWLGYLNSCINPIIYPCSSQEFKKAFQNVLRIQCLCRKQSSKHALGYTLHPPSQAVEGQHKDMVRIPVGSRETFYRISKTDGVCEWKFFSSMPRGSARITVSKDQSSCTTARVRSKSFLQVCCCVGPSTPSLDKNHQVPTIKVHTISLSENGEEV
Nature of the experiment: Binding affinity at human cloned Alpha-1A adrenergic receptor in chinese hamster ovary cells by [3H]-prazosin displacement. The experiment is classed as cell-based, CHO.

In experiment [4] the target is T4, Alpha-1B adrenergic receptor (Homo sapiens, UniProt P35368).
T4 sequence (P35368 whole entry): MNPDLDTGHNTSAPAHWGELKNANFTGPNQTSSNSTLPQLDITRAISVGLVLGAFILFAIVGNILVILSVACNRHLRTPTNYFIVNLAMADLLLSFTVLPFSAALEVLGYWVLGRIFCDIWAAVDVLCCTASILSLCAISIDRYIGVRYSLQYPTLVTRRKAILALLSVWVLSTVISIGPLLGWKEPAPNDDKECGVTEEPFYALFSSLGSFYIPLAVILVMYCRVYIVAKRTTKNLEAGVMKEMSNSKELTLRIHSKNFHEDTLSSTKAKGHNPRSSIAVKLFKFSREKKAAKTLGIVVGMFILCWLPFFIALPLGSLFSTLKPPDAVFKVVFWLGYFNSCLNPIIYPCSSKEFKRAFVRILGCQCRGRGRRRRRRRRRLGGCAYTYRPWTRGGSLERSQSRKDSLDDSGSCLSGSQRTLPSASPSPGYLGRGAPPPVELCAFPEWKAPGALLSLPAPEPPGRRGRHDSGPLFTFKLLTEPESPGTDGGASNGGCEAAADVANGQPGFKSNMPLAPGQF
Nature of the experiment: Binding affinity at human cloned Alpha-1B adrenergic receptor in chinese hamster ovary cells by [3H]prazosin displacement. The experiment is classed as cell-based, CHO.

Turning to `COc1cc2nc(N(C)CCSSCCN(C)C(=O)c3ccco3)nc(N)c2cc1OC`, the pA2 in experiment [1] is given as below 5. Besides, the Ki in experiment [2] is 0.724 nM; at D(2) dopamine receptor, above 10000 nM; in experiment [3] it was 0.417 nM; in experiment [4], 1.07 nM.
In experiment [1], `COc1cc2nc(N(C)CCCCCCN(C)C(=O)c3ccco3)nc(N)c2cc1OC` showed a pA2 of 6.66. Moreover, the results for the Ki in experiment [2], in experiment [3] and in experiment [4] were 0.195 nM, 0.166 nM and 0.11 nM, respectively.
